This experiment concerns CM cells. As to the kind of experiment: SRB cell viability assay, CM cells. The experiment is classed as cell-based, Human. The conditions noted are these: dark EC50 to light EC50. The procedure:
TLD1433 is known to generate reactive oxygen species (ROS) with high quantum efficacy in many cancer cell lines. However, there is no report of the in vitro toxicity of this compound in eye melanoma (UM) cell lines. We determined the cell viability of three conjunctival melanoma cell lines (CRMM1, CRMM2 and CM2005.1), and three uveal melanoma cell lines (OMM1, OMM2.5, MEL270) in the presence of TLD1433, both in the dark or under green light irradiation (21 mW/cm^2, 19 J/cm^2, 520 nm, 15 min), and compared this viability to epidermoid carcinoma A431 and cutaneous melanoma A375 cell lines under the same conditions. […] The phototoxicity index (PI), defined as the ratio of the dark EC50 to the light EC50, was also calculated and represents the amplification of TLD1433 activity with a light trigger. […]
At day 0, cells were detached using 1mL of trypsin, resuspended in 4 mL of media and transferred to a 15 mL corning falcon tube. Cells were counted using trypan blue and BioRad® TC20™ automated cell counter (Figure 11). Dilutions of 6000 (CRMM1), 6000 (CRMM2), 8000 (CM2005.1), 6000 (OMM1), 6000 (OMM2.5), 6000 (MEL270) 8000 (A431), and 4000 (A375) cells/well were calculated from each cell suspension at a final volume of 6 mL using the following formula: Vc=(Vt×10C)/Lc where Vt = total volume of solution, C = number of cells per well/per 100 μL and Lc = live cells count (cells/mL). […]

Where only a bound is given, the exact number is not on record here.

Consider `Cc1ccnc(-c2cc(C)ccn2)c1.Cc1ccnc(-c2cc(C)ccn2)c1.[Cl-].[Cl-].[Ru+2].c1csc(-c2ccc(-c3ccc(-c4nc5c6cccnc6c6ncccc6c5[nH]4)s3)s2)c1` [TLD1433], for which the PI was greater than 140.

The record behind these values is article PMC7139549, “TLD1433 Photosensitizer Inhibits Conjunctival Melanoma Cells in Zebrafish Ectopic and Orthotopic Tumour Models” (Cancers, 2020).
